# Values of other authors in US20040097484A1 (priority 2002, published 2004).
# Conditions: in vivo
smiles,measurement,value
"COc1ccc2c3c1O[C@H]1C[C@@H](O)C=C[C@@]31CCN(C)C2 [galantamine, 4a, 5,9, 10, 11, 12-hexahydro-3-methoxy-11-methyl-6H-benzofuro [3a, 3,2-e][2] benzazepin-6-ol]",effective plasma concentration duration (sufficient elimination half-life),at least 4 hours
